Experiments:
[1] = tested on: lung fibrosis lung fibroblasts; conditions: cited from earlier work
[2] = tested on: HS746T cell line; experiment: CCK-8 assay, MRTF A inhibitor and cisplatin alone or in combination; type: cell-based, human; conditions: 5 μg/ml inhibitor, after 24 hours 5 μM cisplatin, CCK-8 24 hours later, FIG. 8
Method: In the same manner as described above, 5 μg/ml CCG-232601, CCG-203971 or CCG-222740 was first administered to the HS746T cell line, and after 24 hours, 5 μM cisplatin (CDDP) was administered to the cell line, and 24 hours after administration of CDDP, a CCK-8 assay was performed using a cell viability assay kit.

[3] = tested on: murine model of skin injury; conditions: cited from earlier work
[4] = tested on: human colonic myofibroblasts; conditions: cited from earlier work
[5] = tested on: preclinical fibrosis model; conditions: cited from earlier work
[6] = tested on: alpha smooth muscle actin protein; conditions: cited from earlier work
[7] = tested on: HS746T cell line; experiment: CCK-8 assay, CCG-232601 and oxaliplatin alone or in combination; type: cell-based, human
Method: In order to examine whether the co-administration of the compound CCG-232601 is also effective in improving drug sensitivity to other platinum-based anticancer drugs of the same family as cisplatin, the survival and growth inhibitory effects upon administration of CCG-232601 and oxaliplatin alone or in combination to the HS746T cell line were evaluated using a cell viability assay kit (Cell Counting Kit-8; CCK-8). Unlike administration alone, to evaluate the effect of co-administration, 5 μg/ml CCG-232601 was first administered to the HS746T cell line, and 24 hours after administration of CCG-232601, 24 μg/ml oxaliplatin was administered to the cell line, and 24 hours after administration of oxaliplatin, CCK-8 assay was performed using a cell viability assay kit.

[8] = tested on: MKN1 cell line; experiment: CCK-8 assay, CCG-232601 and cisplatin alone or in combination; type: cell-based, human; conditions: FIG. 6
Method: Accordingly, in order to evaluate the effect of co-administration of the compound CCG-232601, the survival and growth inhibitory effects upon administration of cisplatin (CDDP) and CCG-232601 alone or in combination to the MKN1 cell line were evaluated using a cell viability assay kit (Cell Counting Kit-8; CCK-8). Unlike administration alone, to evaluate the effect of co-administration, 5 μg/ml CCG-232601 was first administered to the MKN1 cell line, and 24 hours after administration of CCG-232601, 5 μM cisplatin (CDDP) was administered to the cell line, and 24 hours after administration of CDDP, CCK-8 assay was performed using a cell viability assay kit.

[9] = tested on: MKN1; experiment: Transwell invasion assay; type: cell-based, human; conditions: MKN1, 10 μg/ml, 12 hours, matrigel transwell, FIG. 3
Method: (§1) Transwell invasion assay was performed with or without CCG-232601 treatment. Invasion ability was measured using a 6.5-mm transwell with an 8.0 μm-pore polycarbonate membrane insert (Corning) after coating with matrigel (Corning) diluted with serum-free medium to 0.67 μg/μl. Then, 2×10^4 cells per well were suspended in 200 μl of serum-free medium with vehicle or 10 μg/ml CCG-232601, and 1,000 μl of culture medium containing 10% FBS was added to the lower chamber. After 12 hours, the transferred cells were stained with 0.2% crystal violet and observed under an optical microscope. The average number of cells penetrating the membrane was counted with ImageJ (NIH) in three randomly selected high-power fields and two independent experiments, and the results are shown in FIG. 3.

[10] = tested on: HS746T; experiment: Transwell invasion assay; type: cell-based, human; conditions: 10 μg/ml, 12 hours, matrigel transwell, FIG. 3
Method: as §1

[11] = tested on: bleomycin-induced dermal fibrosis; conditions: administered orally to mice; cited from earlier work
[12] = tested on: MKN1; experiment: Oxygen consumption rate (OCR) and extracellular acidification rate (ECAR), extracellular flux analyzer; type: cell-based, human
Method: (§2) In particular, in order to confirm that the CCG-232601 compound has an excellent inhibitory effect against the growth of cancer stem cells, the oxygen consumption rate (OCR) and extracellular acidification rate (ECAR) of the stern-like cell lines HS746T and MKN1 having high resistance to metabolic stress were measured and the results are FIG. 2. More specifically, each of the cell lines was inoculated at a confluency of 70 to 80% in Seahorse normal culture medium, and oxygen consumption rate (OCR, pmol/min/μg protein) and extracellular acidification rate (ECAR, mpH/min/μg protein) were analyzed using an XF96 or XFp extracellular flux analyzer (Agilent) to determine mitochondrial oxidation and glycolysis levels. Mitochondrial oxidation ability of the cells pretreated for 1 hour with or without 10 mM β-HB (Sigma) was evaluated using the Seahorse XF Mito Stress Kit (Agilent). To overcome changes in oxidation and glycolysis processes upon treatment with CCG-232601, the cells were pretreated overnight with vehicle or the inhibitor, and finally 10 mM β-hydroxybutyrate was added upon the first injection.

[13] = tested on: HS746T; experiment: as above; type: cell-based, human
Method: as §2

[14] = tested on: NCIN87; experiment: Cell viability (CCK-8), treatment alone, Example 1; type: cell-based, human; conditions: NCIN87 gastric cancer cell line, different concentrations, 48 hours, FIG. 1
Method: (§3) In order to evaluate the ability to inhibit the growth or metastasis of cancer cell lines or cancer stem cell lines in Examples of the present invention, the present inventors obtained the cell lines MKN1 and HS746T having human gastric cancer stem cell characteristics, and the human gastric cancer cell lines SNU601, YCC7 and NCIN87, from the American Type Culture Collection (ATCC) and the Korean Cell Line Bank (KCRB). The cell lines were cultured in different culture media under different culture conditions according to the ATCC or KCRB guides. The MKN1, SNU601, and NCIN87 cell lines were cultured in RPMI1640 media containing 10% fetal bovine serum (FBS), 2 mM L-glutamine, 100 U/ml penicillin and 100 μg/ml streptomycin, and the HS746T and YCC7 cell lines were cultured in DMEM media containing 10% FBS, 2 mM L-glutamine, 100 U/ml penicillin and 100 μg/ml streptomycin. All the cell lines were cultured at 37° C. under 5% CO2, and mycoplasma contamination tests were performed.
(§4) The cell lines cultured in the Preparation Example were seeded into well plates at a density of 1×10^4 cells per well, and cultured overnight at 37° C. under 5% CO2. Next, each of the gastric cancer stem-like cell lines HS746T and MKN1 and the gastric cancer cell lines YCC7 and NCIN87 was treated with different concentrations of each of the anticancer drug cisplatin (CDDP), which is currently widely used in the treatment of gastric cancer patients, and the MRTF A inhibitor CCG-232601 compound, and after 48 hours, the number of cells was counted and the results are shown in FIG. 1. 100 μL of each cell culture and 10 μL of reaction buffer (CCK) were mixed together, placed in a 96-well plate, incubated for 1 hour at room temperature, and then measured for absorbance at a wavelength of 450 nm using a spectrophotometer (Synergy HTX Multi-Reader, BioTek, Winooski, VT, USA). At the same time, the number of cells in each sample was counted using a cell viability assay kit (Cell Counting Kit-8), and the counted value was expressed relative to the cell number of the negative control group so that the same cell number in each cell could be compared with the cell number of the negative control group. The experimental results are shown as the mean values of the repeated experiments.

[15] = tested on: MKN1; experiment: Cell viability (CCK-8), treatment alone, Example 1; type: cell-based, human; conditions: MKN1 stem-like cell line, different concentrations, 48 hours, FIG. 1
Method: as §3, §4

[16] = tested on: YCC7; experiment: Cell viability (CCK-8), treatment alone, Example 1; type: cell-based, human; conditions: YCC7 gastric cancer cell line, different concentrations, 48 hours, FIG. 1
Method: as §3, §4

[17] = tested on: HS746T; experiment: Cell viability (CCK-8), treatment alone, Example 1; type: cell-based, human; conditions: HS746T stem-like cell line, different concentrations, 48 hours, FIG. 1
Method: as §3, §4

[18] = tested on: MKN1; experiment: Drug sensitivity upon treatment with cisplatin (CDDP); type: cell-based, human
Method: (§5) Drug sensitivity upon treatment with cisplatin (CDDP) was measured in the gastric cancer cell lines SNU601 and NCIN87 and the cell lines HS746T and MKN1 having gastric cancer stem cell-like characteristics, and the results are shown in FIG. 3.

[19] = tested on: HS746T; experiment: as above; type: cell-based, human
Method: as §5

SMILES: O=C(Nc1ccc(Cl)cc1)C1CCCN(C(=O)c2cccc(-c3ccco3)c2)C1 (centres unmarked) [CCG-203971, N-(4-chlorophenyl)-1-(3-(furan-2-yl)benzoyl)piperidine-3-carboxamide]
- antifibrotic activity [1]: shows antifibrotic activity
- drug sensitivity to cisplatin in combination versus cisplatin alone [2]: drug sensitivity was improved
- antifibrotic activity [3]: shows antifibrotic activity
- matrix stiffness and TGF-β-mediated fibrogenesis [4]: represses

SMILES: O=C(Nc1ccc(Cl)cc1)C1CN(C(=O)c2cccc(-c3ccco3)c2)CC(F)(F)C1 (centres unmarked) [CCG-222740, N-(4-chlorophenyl)-5,5-difluoro-1-(3-(furan-2-yl)benzoyl)piperidine-3-carboxamide]
- drug sensitivity to cisplatin in combination versus cisplatin alone [2]: drug sensitivity was improved
- scar tissue formation [5]: effectively prevent scar tissue formation
- expression of alpha smooth muscle actin protein [6]: prevent the expression

SMILES: O=C(Nc1ccc(Cl)cc1)C1CN(C(=O)c2cccc(-c3ccncc3)c2)CC(F)(F)C1 (centres unmarked) [CCG-232601, N-(4-chlorophenyl)-5,5-difluoro-1-(3-(pyridin-4-yl)benzoyl)piperidine-3-carboxamide]
- cytotoxicity at 5 µg/mL ([7]; Homo sapiens, 5 μg/ml CCG-232601, after 24 hours 24 μg/ml oxaliplatin, CCK-8 24 hours later, FIG. 7, read-out: reduction of cell viability compared to oxaliplatin alone): ≥ 20%
- growth of the cancer stem-like cells, administered alone ([7]; administered alone, FIG. 7): reduced the growth
- reduction of cell viability ([8]; MKN1, administered alone, compared to negative control group and cisplatin-alone group): 20%
- drug sensitivity to cisplatin in combination versus cisplatin alone [2]: drug sensitivity was improved
- invasion and metastasis (cells penetrating the membrane) [9]: reduced the invasion and metastasis
- invasion and metastasis (cells penetrating the membrane) [10]: reduced the invasion and metastasis
- development of bleomycin-induced dermal fibrosis [11]: suppress the development
- susceptibility to glucose deprivation ([12]; MKN1, conclusion from OCR/ECAR results): greatly increased the susceptibility
- glycolytic ECAR versus OCR (mitochondrial respiration) ([12]; MKN1, pretreated overnight with inhibitor, FIG. 2): ECAR was higher than the OCR
- susceptibility to glucose deprivation ([13]; conclusion from OCR/ECAR results): greatly increased the susceptibility
- glycolytic ECAR versus OCR (mitochondrial respiration) ([13]; pretreated overnight with inhibitor, FIG. 2): ECAR was higher than the OCR
- antitumor effect (cell number relative to negative control) [14]: exhibited antitumor effects
- antitumor effect (cell number relative to negative control) [15]: exhibited antitumor effects
- antitumor effect (cell number relative to negative control) [16]: exhibited antitumor effects
- antitumor effect (cell number relative to negative control) [17]: exhibited antitumor effects

SMILES: N.N.[Cl][Pt][Cl] [cisplatin]
- effect on cell viability, administered alone ([8]; MKN1, cisplatin alone): drug resistance
- antitumor effect (cell number relative to negative control) [15]: exhibited significantly improved antitumor effects
- antitumor effect (cell number relative to negative control) [17]: exhibited significantly improved antitumor effects
- resistance of the cell line to cisplatin ([18]; MKN1, FIG. 4): showed resistance
- drug sensitivity lower than that of the cancer cell lines ([18]; MKN1 versus SNU601 and NCIN87, FIG. 4): 20 to 40%
- drug sensitivity lower than that of the cancer cell lines ([19]; HS746T versus SNU601 and NCIN87, FIG. 4): 20 to 40%
- resistance of the cell line to cisplatin ([19]; HS746T, FIG. 4): showed resistance
